Data reported in PMC7760315 (Biomolecules, 2020).
Values joined by “and” are separate entries in the source; they are usually repeats but may differ in a detail not shown here. Equal entries are not always repeated. Where two headings read alike, the source gives them in different places.

Legend:
GlyRα1/GlyT1 [1] = biological target: T1, GlyRα1/GlyT1 (Homo sapiens, UniProt P23415); assay: Two-electrode voltage clamp, oocytes co-expressing GlyRα1/GlyT1; format: cell-based; conditions: 1 µM inhibitor; fast-flow
T1 construct: expressed in transfected cells; host or cells: Xenopus laevis oocytes (cRNA co-injection)
T1 sequence (P23415 29-457): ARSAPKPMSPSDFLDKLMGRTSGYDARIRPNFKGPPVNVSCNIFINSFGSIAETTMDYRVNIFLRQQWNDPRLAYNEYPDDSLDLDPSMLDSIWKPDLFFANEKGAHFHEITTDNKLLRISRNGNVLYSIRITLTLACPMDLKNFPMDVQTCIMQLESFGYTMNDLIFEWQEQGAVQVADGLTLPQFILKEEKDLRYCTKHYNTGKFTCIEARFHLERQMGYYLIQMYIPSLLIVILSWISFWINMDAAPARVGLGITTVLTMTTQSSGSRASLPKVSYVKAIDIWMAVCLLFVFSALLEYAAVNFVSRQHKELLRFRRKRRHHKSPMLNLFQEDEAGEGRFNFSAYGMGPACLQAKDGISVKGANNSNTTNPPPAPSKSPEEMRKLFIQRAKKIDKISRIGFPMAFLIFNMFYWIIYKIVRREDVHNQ
Excerpt: (§1) Human GlyT1b and GlyT2a WT cDNA were subcloned into the plasmid oocyte transcription vector (pOTV) and human GlyRα1, GlyRα3 and GlyRβ into pGEMHE. GlyR cDNA pGEMHE vectors were provided by Mary Collins at the University of Sydney (Sydney, Australia). Single point mutations were introduced into GlyRα1 using the Q5 site-directed mutagenesis kit (New England Biolabs (Genesearch), Arundel, Australia) with oligonucleotide primers (Merck, Sydney, Australia) containing the desired mutations. The amplified cDNA/pOTV or cDNA/pGEMHE product was then transformed in E. coli cells, and subsequently purified using the PureLink Quick Plasmid Miniprep Kit (Invitrogen by Life Technologies, Löhne, Germany), and sequenced by the Australian Genome Research Facility (Sydney, Australia). The purified plasmid DNA was linearised via the restriction enzyme, SpeI (New England Biolabs (Genesearch), Arundel, Australia) for GlyT1b and GlyT2a (henceforth referred to as GlyT1 and GlyT2 respectively) and NheI (New England Biolabs (Genesearch)) for GlyRα1, GlyRα3 and GlyRβ. Complementary RNAs were synthesised using the mMESAGE mMACHINE T7 kit (Ambion, Austin, TX, USA).
(§2) All work involving the use of animals was performed in accordance with the Australian Code of Practice for the Care and Use of Animals for Scientific Purposes and approved by the University of Sydney Animal Ethics Committee (Approval numbers 2016/970 and 2020/1704). […] The oocytes were then stored in frog Ringer’s solution (96 mM NaCl, 2 mM KCl, 1 mM MgCl2, 1.8 mM CaCl2, 5 mM HEPES, pH 7.5) which was supplemented with 2.5 mM sodium pyruvate, 0.5 mM theophylline, 50 μg/mL gentamicin and […] tetracycline. The oocytes were stored at 18 °C for 3–5 days, until transporter and receptor expression were adequate for measurement using the two-electrode voltage clamp technique.
(§3) GlyT1, GlyT2, GlyRα1, GlyRα3, GlyRα1β and GlyRα3β are electrogenic, allowing activation to be measured via the two-electrode voltage clamp technique. Oocytes were voltage clamped at −60 mV, and whole-cell currents generated by the substrate were recorded with a Geneclamp 500 amplifier (Axon Instruments, Foster City, CA, USA), digitised by a Powerlab 2/20 chart recorder (ADInstruments, Sydney, Australia). LabChart version 8 software (ADInstruments, Sydney, Australia) was used to visualise and process current traces. Recordings were performed in frog Ringer’s solution, except for low Na^+ experiments where Na^+ was replaced with choline. Oocytes were placed in an oval-shaped bath with a volume of 0.3 mL, with laminar flow around the oocyte at a rate of 12 mL min^−1 under gravity feed.
(§4) Varying concentrations of substrate or agonist were applied to cells in ND96.
(§5) Flow of the solution was stopped until the current plateaued, by manually closing a three-way valve on one end of the bath such that the solution in the bath was static and is referred to henceforth as ‘stop-flow’.

GlyRα1/GlyT1 [2] = biological target: T2, GlyRα1/GlyT1 (Homo sapiens, UniProt P48067); assay: as above; format: cell-based; conditions: 1 μM ALX-5407; 1 mM Na+ buffer
T2 construct: expressed in transfected cells; host or cells: Xenopus laevis oocytes (cRNA co-injection)
T2 sequence (P48067 1-652 isoform P48067-3): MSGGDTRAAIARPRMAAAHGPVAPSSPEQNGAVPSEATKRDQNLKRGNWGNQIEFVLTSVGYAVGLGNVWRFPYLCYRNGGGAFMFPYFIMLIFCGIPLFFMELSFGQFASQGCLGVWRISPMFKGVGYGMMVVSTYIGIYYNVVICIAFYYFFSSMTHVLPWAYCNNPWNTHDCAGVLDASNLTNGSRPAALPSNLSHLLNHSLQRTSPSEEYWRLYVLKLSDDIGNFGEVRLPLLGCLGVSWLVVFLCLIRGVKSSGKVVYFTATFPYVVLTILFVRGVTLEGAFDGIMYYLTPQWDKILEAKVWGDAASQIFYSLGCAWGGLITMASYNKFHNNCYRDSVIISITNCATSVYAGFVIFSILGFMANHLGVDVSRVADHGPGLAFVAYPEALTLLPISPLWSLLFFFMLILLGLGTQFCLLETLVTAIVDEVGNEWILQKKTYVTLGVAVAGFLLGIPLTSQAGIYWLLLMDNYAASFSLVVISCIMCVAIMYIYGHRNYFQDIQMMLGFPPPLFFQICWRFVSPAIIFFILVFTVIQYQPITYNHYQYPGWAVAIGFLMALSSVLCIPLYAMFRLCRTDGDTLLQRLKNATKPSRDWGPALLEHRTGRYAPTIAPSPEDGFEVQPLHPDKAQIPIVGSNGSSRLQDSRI
Excerpt: as §1, §2, §3, §4, §5

GlyT1 = conditions: cited from earlier work
GlyRα1 [3] = biological target: T3, GlyRα1 (Homo sapiens, UniProt P23415); assay: Two-electrode voltage clamp, Xenopus laevis oocytes expressing GlyRα1 alone; format: cell-based; conditions: 1 µM lipid; fast-flow
T3 construct: expressed in transfected cells; host or cells: Xenopus laevis oocytes (cRNA injection)
T3 sequence (P23415 29-457): T1 sequence (P23415 29-457)
Excerpt: as §1, §2, §3, §4, §5

GlyT2 = conditions: cited from earlier work; for GlyT2 Activity: % Inhibition (1 µM): 1 µM lipid, inhibition of glycine transport; for IC50: inhibition of glycine transport by GlyT2; for GlyT2 Activity: Max inhibition (%): maximal level of inhibition observed
GlyRα1 [4] = conditions: cited from earlier work; for GlyRα1 Potentiation at EC5 (%): % stimulation of glycine EC5 caused by 1 µM lipid

Structure (SMILES)	nH of glycine dose-response in the presence of GlyT inhibitor (GlyRα1/GlyT1 [1])	stopped flow increase in current amplitude (reverse glycine transport / efflux) (GlyRα1/GlyT1 [2])	IC50 (GlyT1)	nH of glycine dose-response in the presence of lipid (GlyRα1 [3])	GlyT2 Activity: % Inhibition (1 µM) (GlyT2)	IC50 (GlyT2)	GlyRα1 Potentiation at EC5 (%) (GlyRα1 [4])	GlyT2 Activity: Max inhibition (%) (GlyT2)	GlyT2 Activity: % Inhibition (1 µM) (GlyT2; listed as 18-cis-ω9-glycine)	GlyRα1 Potentiation at EC5 (%) (GlyRα1 [4]; listed as 18-cis-ω9-glycine)	effect on Imax of GlyRα1 (GlyRα1 [4]; dose-dependent)	effect on glycine EC50 of GlyRα1 (GlyRα1 [4]; dose-dependent)
CN(CC[C@@H](Oc1ccc(-c2ccccc2)cc1)c1ccc(F)cc1)CC(=O)O [ALX-5407]	2.0 ± 0.2 ns	prevents	0.003 µM	–	–	–	–	–	–	–	–	–
CCCCCC/C=C\CCCCCCCCCC(=O)NCC(=O)O [C18-cis-ω7-glycine]	–	–	–	2.8 ± 0.3 ns	10.5 ± 0.02%	> 10 µM	184.7 ± 41.3 (5) %	–	–	–	–	–
CCCCCCCCC=CCCCCCCCC(=O)NC(CCSC)C(=O)O [C18-cis-ω9-L-methionine]	–	–	–	2.2 ± 0.3 ns	84.9 ± 0.07%	0.0292 µM	2.2 ± 4.2% and 2.2 ± 4.2 (6) %	91.2%	–	–	–	–
CCCCCCCC/C=C\CCCCCCCC(=O)NCC(=O)O [C18-cis-ω9-glycine]	–	–	–	2.4 ± 0.2 ns	50.1 ± 0.06%	0.031 µM	84.7 ± 14.0%	95.0%	89.6 ± 0.01%	84.7 ± 14.0 (8) %	increases	decreases
